Measurements reported in patent US20170260134A1, “Ceramide Analogs” (Augusta University Research Institute, Inc., priority 2016, published 2017).
Entries after “also recorded” stand apart in the source; their conditions may differ.

Legend:
[1] = test system: SW480, RKO and HCT116 cells; assay: Tumor cell apoptosis assay: ceramide analog at sublethal dose plus FasL (Annexin V/PI); type: cell-based, human; settings: for increase of cell sensitivity to FasL-induced apoptosis: sublethal dose of analog (10 μM) plus FasL (10 ng/ml SW480, HCT; 100 ng/ml RKO); for activity in human colon carcinoma: summary statement
Experimental: FIG. 5A is a bar graph of Percent Apoptotic cell death of SW480 cells treated with the indicated ceramide analogs (10 μM), with (10 ng/ml) or without FasL and treated with FasL alone. FIG. 5B is a bar graph of Percent Apoptotic cell death of RKO cells treated with the indicated ceramide analogs (10 μM), with (100 ng/ml) or without FasL and treated with FasL alone. FIG. 5C is a bar graph of Percent Apoptotic cell death of HCT cells treated with the indicated ceramide analogs (10 μM), with (10 ng/ml) or without FasL and treated with FasL alone. % apoptotic cell death was calculated as % Annexin V^+PI^+ cells in the presence of ceramide analogs plus MegaFasL−% Annexin V^+PI^+ cells in the control group. Column: mean; Bar: SD.
Tumor cells were cultured in the presence of MegaFasL at the indicated concentrations as previously described Hu, X. et al. Deregulation of apoptotic factors Bcl-xL and Bax confers apoptotic resistance to myeloid-derived suppressor cells and contributes to their persistence in cancer. J Biol Chem 288, 19103-19115, doi:10.1074/jbc.M112.434530M112.434530 [pii] (2013). FasL (Mega-Fas Ligand®, kindly provided by Drs. Steven Butcher and Lars Damstrup at Topotarget A/S, Denmark) is a recombinant fusion protein that consists of three human FasL extracellular domains linked to a protein backbone comprising the dimmer-forming collagen domain of human adiponectin. The Mega-Fas Ligand was produced as a glycoprotein in mammalian cells using Good Manufacturing Practice compliant process in Topotarget A/S (Copenhagen, Denmark). For tumor cell apoptosis analysis, cells were stained with Alexa Fluor 647 Annexin V (Biolegend) in Annjixin V-binding buffer (10 mM Hepes, pH 7.4, 140 mM NaCl, 2.5 mM CaCl2) for 30 min at 4° C. Propidium Iodide was then added to the cell suspension, and cells were analyzed by flow cytometry as previously described Bardhan, K. et al. IFNgamma induces DNA methylation-silenced GPR109A expression via pSTAT1/p300 and H3K18 acetylation in colon cancer. Cancer Immunol Res, doi:canimm.0164.2014 [pii]2326-6066.CIR-14-0164 [pii] 10.1158/2326-6066.CIR-14-0164 (2015).
Next, the efficacy of the ceramide analogs was tested at their sublethal doses in enhancement of FasL-induced apoptosis using SW480, RKO and HCT116 cells. Tumor cells were treated with a sublethal dose of each of these 20 ceramide analogs along or ceramide analog plus FasL, and analyzed for apoptosis. […] Therefore, six novel ceramide analogs were identified that can effectively enhance the efficacy of FasL-induced apoptosis in human colon carcinoma cells.

CT26 cells = assay: CT26 colon carcinoma lung metastasis in BALB/c mice; type: in vivo; settings: 25 and 50 kg body weight, intraperitoneal, days 8, 10 and 12 after tumor injection
Experimental: FIG. 8 is a bar graph of number of tumor nodules/lung in lungs taken from BALB/c mice injected with CT26 cells (2.5×10^5 cell per mouse). Tumor-bearing mice were treated with the indicated 5 ceramide analogs (25 and 50 […]) by intraperitoneal injection at days 8, 10 and 12 after tumor injection. CT26 cells (2.5×10^5 cell per mouse) were injected to BALB/c mice on […]. Tumor-bearing mice were treated with the 5 ceramide analogs (25 and 50 […]) by intraperitoneal injection at days 8, 10 and 12 after tumor injection. […]. Mouse lungs were inflated with ink and fixed. […] White dots are tumor nodules. Bottom panel: quantification of tumor nodule number in the lungs.

SW480 cells = assay: Cell viability (MTT) assay, cytotoxicity of ceramide analogs; type: cell-based, human; settings: three days, at the doses tested
Experimental: FIG. 4 is a bar graph of Percent Cell Viability (MTT assay) showing. cytotoxicity of the indicated ceramide analogs to human colon carcinoma cells. Human colon carcinoma SW480 cells were cultured in the presence of ceramide analogs at the indicated concentrations for three days. Cell viability was determined by MTT assays. % cell viability of control was set at 100% and cell viability of treatment groups was calculated as % of the control groups. IC50 was calculated using GraphPad Prism program.
Cells were seeded in 96-well plates at 2×10^3 cells/well in 100 μl culture medium for 3 days. Cell viability assays were performed using the MTT cell proliferation assay kit (ATCC, Manassas, Va.) according to the manufacturer's instructions.
The structures and functions of ceramide analogs Cheng, J. C. et al. Radiation-induced acid ceramidase confers prostate cancer resistance and tumor relapse. J Clin Invest 123, 4344-4358, doi:10.1172/JCI6479164791 [pii] (2013); and Paschall, A. V. et al. Ceramide targets xIAP and cIAP1 to sensitize metastatic colon and breast cancer cells to apoptosis induction to suppress tumor progression. BMC Cancer 14, 24, doi:10.1186/1471-2407-14-241471-2407-14-24 [pii] (2014) were analyzed and synthesized twenty ceramide analogs to be developed into Fas sensitizers (Supplemental Table 1). […]

CT26 tumor cells = assay: CTL cytotoxicity assay with perforin-deficient CTLs (pfpCTL); type: cell-based; settings: analog alone at the dose used
Experimental: FIG. 7A is a line graph of percent tumor cell lysis verus pfpCTLs E/T ratio. Cells were gated for CFSE^+ tumor cells. The gated cells were then analyzed for PI^+ cells. % tumor cell lysis was calculated as % CFSE^+PI^+ cells in the presence of CTLs−% CFSE^+PI^+ cells in the absence of CTLs. FIG. 7B is a bar graph of percent tumor cell lysis Cells were gated for CFSE^+ tumor cells. The gated cells were then analyzed for PI^+ cells. % tumor cell lysis was calculated as % CFSE^+PI^+ cells in the presence of ceramide analogs or ceramide analogs plus pfpCTLs−% CFSE^+PI^+ cells in the absence of ceramide analogs or ceramide analogs plus pfpCTLs. Column: mean; Bar: SD. Bolded ** indicated p<0.01 between ceramide analog+pfpCTLs group and pfpCTLs only group, and green ** indicates p<0.01 between ceramide analog+pfpCTLs group and ceramide analog only group. Column: mean; Bar: SD.
Perforin-deficient CTLs were generated and maintained by weekly stimulation with AH1 peptide as previously described Liu, K., Caldwell, S. A., Greeneltch, K. M., Yang, D. & Abrams, S. I. CTL Adoptive Immunotherapy Concurrently Mediates Tumor Regression and Tumor Escape. J Immunol 176, 3374-3382 (2006). […] Cells were analyzed immediately by flow cytometry. CFSE^+ tumor cells were gated and analyzed for PI^+ cells. […]

SMILES | increase of cell sensitivity to FasL-induced apoptosis [1] | activity in human colon carcinoma [1] | established colon carcinoma lung metastasis (tumor nodules/lung) (CT26 cells) | cytotoxicity (SW480 cells) | cytotoxicity to CT26 tumor cells (CT26 tumor cells)
CCCCCCCC/C=C\CCCCCCCC(=O)N[C@H](CO)[C@@H](O)c1ccc([N+](=O)[O-])cc1 [IG17, N-((1S,2R)-1,3-dihydroxy-1-(4-nitrophenyl)propan-2-yl)oleamide] | effectively increase; also recorded: significant efficacy | potent activity | suppress | – | –
CCCCCCCCCCCCN(C)C(=O)[C@@H](NC(=O)c1cc2cc(Br)ccc2[nH]1)[C@@H](C)O [IG10] | – | – | – | no cytotoxicity | –
CCCCCCCCCCCCN(C)C(=O)[C@@H](NC(=O)c1cc2cc(C)ccc2[nH]1)[C@@H](C)O [IG9] | – | potent activity | – | – | –
CCCCCCCCCCCCN(C)C(=O)[C@@H](NC(=O)c1cc2c(F)cccc2[nH]1)[C@@H](C)O [IG19] | effectively increase; also recorded: significant efficacy | – | suppress | – | –
CCCC/C=C/CCCCCCCC(=O)N[C@H](CO)[C@@H](O)c1ccc([N+](=O)[O-])cc1 [IG20, (E)-N-((1S,2R)-1,3-dihydroxy-1-(4-nitrophenyl)propan-2-yl)tetradec-9-enamide] | – | – | – | no cytotoxicity | –
CCCCCCCCCCCCCNC(=O)[C@@H](NC(=O)c1cc2cc(OC)ccc2[nH]1)[C@@H](C)O [IG7] | effectively increase; also recorded: significant efficacy | potent activity | suppress | – | –
CCCCCCCCCCCCN(C)C(=O)[C@@H](NC(=O)c1cc2cc(F)ccc2[nH]1)[C@@H](C)O [IG14] | effectively increase; also recorded: significant efficacy | potent activity | – | – | –
CCCCCCCCCCCCCNC(=O)[C@@H](NC(=O)c1cc2c(OC)cccc2[nH]1)[C@@H](C)O [IG8] | effectively increase; also recorded: significant efficacy | potent activity | – | – | high cytotoxicity
CCCCCCCCCCCCCNC(=O)[C@@H](NC(=O)c1cc2c(F)cccc2[nH]1)[C@@H](C)O [IG4] | effectively increase; also recorded: significant efficacy | potent activity | suppress | – | –
